According to patent US8324390B2, “Tetrazole-substituted anthranilamides as pesticides” (Bayer CropScience AG, priority 2008, dated 2012):
Like-named read-outs stand apart in the source and are kept apart here.

Tests used:
[1] = system: green peach aphid (Myzus persicae); test: Myzus test (MYZUPE spray treatment); assay type: in vivo; conditions: for Kill in %/7 days: 100 g/ha; for pest or weed control at 100 g/ha: Myzus persicae, in Brassica rapa, foliar, read-out: effect in % (aphids killed)
Description: Solvent: 78 parts by weight of acetone
(§1) Solvent: 78.0 parts by weight of acetone

[2] = system: caterpillars of the armyworm (Spodoptera frugiperda); test: Spodoptera frugiperda test (SPODFR spray treatment); assay type: in vivo; conditions: Spodoptera frugiperda, foliar, read-out: effect in % (caterpillars killed)
Description: as §1

[3] = log P determination by HPLC (EEC Directive 79/831 Annex V.A8); assay type: physicochemical
Method: The measurements were carried out using an Agilent 1100 LC system with a 50*4.6 Zorbax Eclipse C18 1.8 μm column (oven temperature 55° C., flow rate 2.0 ml/min).
The following mobile phases were used:
Mobile phase A: acetonitrile+1000 μl of formic acid/l
Mobile phase B: Millipore water+900 μl of formic acid/l

[4] = system: larvae of the mustard beetle (Phaedon cochleariae); test: Phaedon test (PHAECO spray treatment); conditions: Phaedon cochleariae, in Brassica rapa, foliar, read-out: effect in % (beetle larvae killed)
[5] = application rate 100 g/ha, maize leaf discs
[6] = reversed-phase HPLC, Zorbax Eclipse C18 column, by HPLC according to EEC Directive 79/831 Annex V.A8, read-out: log P
[7] = reversed-phase HPLC, Zorbax Eclipse C18 column, determined by HPLC according to EEC Directive 79/831 Annex V.A8, read-out: log P
[8] = by HPLC according to EEC Directive 79/831 Annex V.A8, read-out: log P

Row | Structure (SMILES) | pest or weed control at 100 g/ha ([2]; in Zea mays) [%] | chromatographic logP ([3]; log P) | pest or weed control at 100 g/ha [4] [%] | further results
1 | CNC(=O)c1cc(Cl)cc(C)c1NC(=O)c1cc(Cn2nnnc2-c2ccc(C(F)(F)F)cc2)nn1-c1ncccc1Cl [drawing 606] | – | – | – | Kill in %/7 days [1]: 80%
2 | Cc1cc(Cl)cc(C(=O)NC(C)C)c1NC(=O)c1cc(Cn2nnc(C(F)(F)C(F)(F)F)n2)nn1-c1ncccc1Cl [drawing 603] | – | – | – | Kill in %/7 days [1]: 70%
3 | Cc1cc(C)c(NC(=O)c2cc(Cn3nnc(C(F)(F)F)n3)nn2-c2ncccc2Cl)c(C(N)=O)c1 [Example 80] | ≥ 80 | 2.62 | – | pest or weed control at 100 g/ha [1]: ≥ 80%
4 | CSC[C@H](C)NC(=O)c1cc(C#N)cc(C)c1NC(=O)c1cc(Cn2nnc(C(F)(F)F)n2)nn1-c1ncccc1Cl [Example 22] | – | – | – | log P [3]: 3.27; pest or weed control at 100 g/ha [1]: ≥ 80%
5 | CNC(=O)c1cc(Cl)cc(C)c1NC(=O)c1cc(Cn2nnnc2C(F)(F)F)nn1-c1ncccc1Cl [drawing 605] | – | – | – | Kill in %/7 days [1]: 100%
6 | CCNC(=O)c1cc(C)cc(C)c1NC(=O)c1cc(Cn2nnc(C(F)(F)F)n2)nn1-c1ncccc1Cl [Example 81] | ≥ 80 | 3.06 | – | pest or weed control at 100 g/ha [1]: ≥ 80%
7 | Cc1cc(C)c(NC(=O)c2cc(Cn3nnc(C(F)(F)F)n3)nn2-c2ncccc2Cl)c(C(=O)NC(C)C2CC2)c1 (centres unmarked) [Example 82] | ≥ 80 | 3.59 | – | pest or weed control at 100 g/ha [1]: ≥ 80%
8 | Cc1cc(I)cc(C(=O)NC(C)C2CC2)c1NC(=O)c1cc(Cn2nnc(C(F)F)n2)nn1-c1ncccc1Cl (centres unmarked) [Example 274] | ≥ 80 | 3.52 | – | pest or weed control at 100 g/ha [1]: ≥ 80%
9 | Cc1cc(I)cc(C(=O)NC(C)C)c1NC(=O)c1cc(Cn2nnc(C(F)F)n2)nn1-c1ncccc1Cl [Example 277] | ≥ 80 | 3.2 | ≥ 80 | –
10 | Cc1cc(Br)cc(C(=O)NC(C)C)c1NC(=O)c1cc(Cn2nnc(C(F)(F)F)n2)nn1-c1ncccc1Br [Example 355] | – | – | ≥ 80 | pest or weed control at 100 g/ha [2, 5]: ≥ 80%; chromatographic logP [3, 6]: 3.66
11 | Cc1cc(Cl)cc(C(=O)NC2CC2)c1NC(=O)c1cc(Cn2nnc(C(F)(F)F)n2)nn1-c1ncccc1Cl [Example 25] | ≥ 80 | 3.23 | ≥ 80 | –
12 | Cc1cc(Cl)cc(C(=O)NC2CCC2)c1NC(=O)c1cc(Cn2nnc(C(F)(F)C(F)(F)F)n2)nn1-c1ncccc1Cl [Example 132] | ≥ 80 | 4.03 | ≥ 80 | –
13 | Cc1cc(C#N)cc(C(N)=O)c1NC(=O)c1cc(Cn2nnnc2C(F)(F)F)nn1-c1ncccc1Cl [Example 192] | ≥ 80 | 2.12 | ≥ 80 | –
14 | Cc1cc(Cl)cc(C(=O)NC(C)(C)C)c1NC(=O)c1cc(C(C)n2nnc(C(F)(F)F)n2)nn1-c1ncccc1Cl (centres unmarked) [Example 541] | ≥ 80 | 4.1 | ≥ 80 | –
15 | CCNC(=O)c1cc(C#N)cc(C)c1NC(=O)c1cc(Cn2nnc(C(F)(C(F)(F)F)C(F)(F)F)n2)nn1-c1ncccc1Cl [Example 369] | ≥ 80 | 3.57 | ≥ 80 | –
16 | Cc1cc(C#N)cc(C(=O)NC2CCCC2)c1NC(=O)c1cc(Cn2nnc(C(F)(F)F)n2)nn1-c1ccccc1Cl [Example 401] | – | – | ≥ 80 | pest or weed control at 100 g/ha [2, 5]: ≥ 80%; chromatographic logP [3, 7]: 3.84
17 | CCNC(=O)c1cc(I)cc(C)c1NC(=O)c1cc(Cn2nnc(C(F)(F)F)n2)nn1-c1ncccc1Cl [Example 66] | ≥ 80 | 3.47 | ≥ 80 | –
18 | Cc1cc(C#N)cc(C(=O)NC(C#N)C2CC2)c1NC(=O)c1cc(Cn2nnc(C(F)(F)F)n2)nn1-c1ncccc1Cl (centres unmarked) [Example 321] | ≥ 80 | 3.05 | ≥ 80 | –
19 | Cc1cc(C#N)cc(C(=O)NC(C)(C)C)c1NC(=O)c1cc(Cn2nnc(C(F)(F)F)n2)nn1-c1ccccc1Br [Example 347] | – | – | ≥ 80 | pest or weed control at 100 g/ha [2, 5]: ≥ 80%; chromatographic logP [3, 6]: 3.95
20 | Cc1cc(I)cc(C(=O)NC(C)C)c1NC(=O)c1cc(Cn2nnc(C(F)(F)F)n2)nn1-c1ncccc1C(F)(F)F [Example 243] | – | – | ≥ 80 | pest or weed control at 100 g/ha [2, 5]: ≥ 80%; chromatographic logP [3, 6]: 3.9

Row | Structure (SMILES) | pest or weed control at 100 g/ha ([2]; in Zea mays) [%] | chromatographic logP ([3]; log P) | pest or weed control at 100 g/ha [4] [%] | further results
21 | CNC(=O)c1cc(Cl)cc(C)c1NC(=O)c1cc(Cn2nnc(C(C)(C)C)n2)nn1-c1ncccc1Cl [Example 103] | ≥ 80 | 3.02 | ≥ 80 | –
22 | Cc1cc(C#N)cc(C(=O)NCC2CC2)c1NC(=O)c1cc(Cn2nnc(C(F)(C(F)(F)F)C(F)(F)F)n2)nn1-c1ncccc1Cl [Example 373] | – | – | ≥ 80 | pest or weed control at 100 g/ha [2, 5]: ≥ 80%; chromatographic logP [3, 6]: 3.84
23 | Cc1cc(C#N)cc(C(=O)NC(C)C)c1NC(=O)c1cc(Cn2nnc(C(F)(F)C(F)(F)F)n2)nn1-c1ncccc1Cl [Example 135] | ≥ 80 | 3.55 | ≥ 80 | –
24 | Cc1cc(I)cc(C(=O)NCC2CC2)c1NC(=O)c1cc(Cn2nnc(C(F)(F)F)n2)nn1-c1ncccc1Cl [Example 73] | ≥ 80 | 3.78 | ≥ 80 | –
25 | O=C(NCC1CC1)c1cc(Cl)cc(Cl)c1NC(=O)c1cc(Cn2nnc(C(F)(F)F)n2)nn1-c1ncccc1Cl [Example 63] | ≥ 80 | 3.47 | ≥ 80 | –
26 | Cc1cc(I)cc(C(=O)NC2CC2)c1NC(=O)c1cc(Cn2nnc(C(F)(F)C(F)(F)C(F)(F)F)n2)nn1-c1ncccc1Cl [Example 111] | ≥ 80 | – | ≥ 80 | chromatographic logP [3, 8]: 4.23
27 | O=C(NC1CCC1)c1cc(Cl)cc(Cl)c1NC(=O)c1cc(Cn2nnc(C(F)(F)F)n2)nn1-c1ncccc1Cl [Example 62] | ≥ 80 | 3.51 | ≥ 80 | –
28 | CNC(=O)c1cc(Cl)cc(C)c1NC(=O)c1cc(Cn2nnc(C(F)(F)C(F)(F)F)n2)nn1-c1ccccc1Cl [Example 402] | – | – | ≥ 80 | pest or weed control at 100 g/ha [2, 5]: ≥ 80%; chromatographic logP [3, 7]: 3.78
29 | Cc1cc(Cl)cc(C(=O)NC(C)(C)C)c1NC(=O)c1cc(Cn2nnc(C(F)(C(F)(F)F)C(F)(F)F)n2)nn1-c1ncccc1Cl [Example 362] | – | – | ≥ 80 | pest or weed control at 100 g/ha [2, 5]: ≥ 80%; chromatographic logP [3, 6]: 4.56
30 | Cc1cc(Cl)cc(C(=O)NC(C)(C)C)c1NC(=O)c1cc(Cn2nnc(C(F)(F)C(F)(F)C(F)(F)F)n2)nn1-c1ncccc1Cl [Example 107] | ≥ 80 | – | ≥ 80 | chromatographic logP [3, 8]: 4.6
31 | CC(C)(C)NC(=O)c1cc(Cl)cc(Cl)c1NC(=O)c1cc(Cn2nnc(C(F)F)n2)nn1-c1ncccc1Cl [Example 287] | ≥ 80 | 3.28 | ≥ 80 | –
32 | CNC(=O)c1cc(Cl)cc(Cl)c1NC(=O)c1cc(Cn2nnc(C(F)(C(F)(F)F)C(F)(F)F)n2)nn1-c1ncccc1Cl [Example 386] | ≥ 80 | 3.65 | ≥ 80 | –
33 | Cc1cc(I)cc(C(=O)NC(C)(C)C)c1NC(=O)c1cc(Cn2nnc(C(F)(F)C(F)(F)C(F)(F)F)n2)nn1-c1ncccc1Cl [Example 121] | ≥ 80 | – | ≥ 80 | chromatographic logP [3, 8]: 4.86
34 | Cc1cc(I)cc(C(N)=O)c1NC(=O)c1cc(Cn2nnc(C(F)(C(F)(F)F)C(F)(F)F)n2)nn1-c1ncccc1Cl [Example 382] | ≥ 80 | 3.67 | ≥ 80 | –
35 | Cc1cc(Cl)cc(C(=O)NCC2CC2)c1NC(=O)c1cc(Cn2nnc(C(F)(C(F)(F)F)C(F)(F)F)n2)nn1-c1ncccc1Cl [Example 359] | – | – | ≥ 80 | pest or weed control at 100 g/ha [2, 5]: ≥ 80%; chromatographic logP [3, 6]: 4.26
36 | Cc1cc(C#N)cc(C(=O)NC(C)(C)C)c1NC(=O)c1cc(Cn2nnnc2C(F)(F)F)nn1-c1ccccc1 [Example 520] | – | – | ≥ 80 | pest or weed control at 100 g/ha [2, 5]: ≥ 80%; chromatographic logP [3, 7]: 3.35
37 | Cc1cc(C#N)cc(C(=O)NCC#N)c1NC(=O)c1cc(Cn2nnc(C(F)(F)F)n2)nn1-c1ncccc1C(F)(F)F [Example 253] | – | – | ≥ 80 | pest or weed control at 100 g/ha [2, 5]: ≥ 80%; chromatographic logP [3, 6]: 2.81
38 | CCNC(=O)c1cc(Cl)cc(Cl)c1NC(=O)c1cc(Cn2nnc(C(F)(C(F)(F)F)C(F)(F)F)n2)nn1-c1ncccc1Cl [Example 388] | ≥ 80 | 3.89 | ≥ 80 | –
39 | Cc1cc(Br)cc(C(=O)NC(C)C)c1NC(=O)c1cc(Cn2nnc(C(F)(F)F)n2)nn1-c1ncccc1Cl [Example 39] | ≥ 80 | 3.57 | ≥ 80 | –
40 | Cc1cc(Br)cc(C(=O)NC(C)C2CC2)c1NC(=O)c1cc(Cn2nnc(C(F)F)n2)nn1-c1ncccc1Cl (centres unmarked) [Example 297] | ≥ 80 | 3.36 | ≥ 80 | –
